In US20240002470A1, “Method for separation and/or detection and/or in vitro quantification of infectious compounds in biological material” (priority 2020, published 2024):

Legend:
S. aureus ATCC 6538 = experiment: Capture on magnetic microbeads coated with pepβ2GPI: C5 S. aureus ATCC 6538; format: binding
Description: (§1) To test the interaction of microbeads coated with β2GPI and the peptides derived from them, with bacteria present in the blood, 1 ml of blood culture is taken from each sample and placed in a 15 ml tube. 20 μl of microbeads are added and each tube is incubated at 37° C. with horizontal shaking. The tubes are then placed in a magnetic field which retains the microbeads on the wall and the supernatant is removed. The microbeads are then washed twice with sterile PBS, of the same composition as previously indicated; the microbeads are then resuspended in 150 μl of BTS culture medium. Two methods for detecting bacteria captured by microbeads were used: culture on TS agar and PCR For the detection of the bacterial capture by culture, 50 μl of the suspension of microbeads thus obtained are taken and they are spread out in a Petri dish containing TS agar. Petri dishes are incubated in an oven at 37° C. for 24 hours. The bacteria that have grown on the agar were then counted.
(§2) The tested bacteria are: C3 E. coli ATCC 11105, C5 S. aureus ATCC 6538, H61 E. coli B6054, C1: E. coli ATCC 8739, H46: C. albicans 1 and H: 60 SCN
(§3) The same protocol and primers as those described in example 9 were carried out.

E. coli ATCC 11105 = experiment: Capture on magnetic microbeads coated with pepβ2GPI: C3 E. coli ATCC 11105; format: binding
Description: as §1, §2, §3

[1] = tested on: BVDV virus (Bovine viral Diarrhea Virus); experiment: Capture of BVDV virus on magnetic microbeads coated with pepβ2GPI; format: binding
Description: (§4) The pepβ2GPI were grafted onto the microbeads according to the supplier's recommendations. In summary, the microbeads are suspended in phosphate buffer at a pH of 6.0. The beads are then activated, for 15 minutes, in the presence of 1-ethyl-3-(3-Dimethylaminopropyl) carbodiimide and N-hydroxysuccinimide. After washing with HCl, 2 mM, the beads are suspended in a phosphate buffer at a pH of 7.5, containing the pepβ2GPI. The concentration of pepβ2GPI in this coupling buffer is 20 mg/L; the microbeads are incubated in the buffer with gentle and constant shaking at a temperature of 25° C. for 3 hours. The microbeads are then centrifuged at 1,500 rpm and the supernatant is removed; the centrifugation pellet is suspended in the same buffer as that used for the coupling of pepβ2GPI, which forms the suspension of microbeads coated with pepβ2GPI which we want to test.
(§5) One hundred microliters of viral culture supernatant to be studied are placed in an Eppendorf tube with 900 microliters of Tris buffer at a pH of 7.5 and 10 microliters of microbeads. The tubes are shaken horizontally to mix the microbeads well, and each tube is incubated at 37° C. or at room temperature (RT=22° C.) for 30 minutes. In each tube, the microbeads are then separated from the liquid phase by means of a magnet, placed externally against the wall of the tube, and the viral RNA is extracted. The beads are brought into contact with a viral lysis buffer, included in an RNA extraction kit: QIAamp RNA viral kit, sold by QIAGEN and the viral RNA is isolated according to the seller's recommendations.
(§6) The viruses tested are the HSV virus (Herpes Simplex virus) and the BVDV virus (Bovine viral Diarrhea Virus).
(§7) The same protocol as that described in example 1 was carried out.

S. aureus, SA 378804 = experiment: Capture of S. aureus SA 378804 on magnetic microbeads, culture and counting; format: binding, Staphylococcus aureus; settings: S. aureus SA 378804 colonies from captured beads
Description: (§8) One ml of the culture of bacteria to be studied is placed in a hemolysis tube. 100 μl of buffer are added, the trade name of which is TTGB, then 20 μl of microbeads. The tube is stirred horizontally, to mix the microbeads well, and incubated at 37° C. or at room temperature (TA=22° C.) for half an hour. At the end of the incubation, the microbeads are separated from the liquid phase by means of a magnet, placed externally against the wall of the tube. The microbeads are then washed twice with LB medium and then resuspended in 1 ml of BTS culture medium (Tripticase-Soy broth) having the following formulation: […]
(§9) This culture medium is brought to a boil and then autoclaved, to make it sterile, before use. 20 μl of the microbead suspension are taken and spread in a Petri dish containing TS agar (Trypticase-Soya agar) having the following formulation: […]
(§10) The Petri dishes are incubated at +37° C. for 24 hours. The bacteria that have grown on the agar are then counted.
The used bacterium is a strain of Staphylococcus aureus (S. aureus), SA 378804, isolated from the wound of the foot of a diabetic person, Sotto et al., Diabetes Care (2008) 31 (12), p. 2318-24. The same experiment as that described in the previous example was carried out.

[2] = tested on: HCV virus (hepatitis C virus); experiment: Capture of HCV virus from patient plasma on magnetic microbeads coated with pepβ2GPI, RT-PCR quantification; format: binding; settings: for % compared to β2GPI: HCV copies captured relative to β2GPI beads; for HCV/run copies: per run, virus captured on coated beads from plasma of patients
Description: as §4, §5
The virus used is the HCV virus (hepatitis C virus), present in the plasma of patients. The same protocol as described in example 1 was carried out.

[3] = tested on: ISAV virus (Infectious salmon anemia virus); experiment: Capture of ISAV virus on magnetic microbeads coated with pepβ2GPI, RT-PCR quantification; format: binding; settings: for % compared to β2GPI: ISAV copies captured relative to β2GPI beads; for ISAV copies: virus captured on coated beads from culture supernatant
From the text: The virus used is the ISAV virus (Infectious salmon anemia virus), responsible for anemia in salmon, originating from a culture supernatant.
The microbeads, intended to fix the virus, which are used are magnetic microbeads sold by the company MERCK under the name “Estapor® super-paramagnetic microspheres” which have a diameter between […].
as §4, §5
The RNA is then transcribed into complementary DNA, in the presence of reverse transcriptase, according to the following protocol:
Finally, the complementary DNA (cDNA) is amplified by chain reaction using a polymerase and quantified according to the following protocol: […]

[4] = tested on: IPN virus (Infectious pancreatic necrosis virus); experiment: Capture of IPN virus on magnetic microbeads coated with pepβ2GPI, RT-PCR quantification; format: binding; settings: for % compared to β2GPI: IPN copies captured relative to β2GPI beads; for IPN Copies: virus captured on coated beads from culture supernatant
Description: as §4, §5
The virus used is the IPN virus (Infectious pancreatic necrosis virus), responsible for necrosis of the pancreas in salmon, originating from a culture supernatant. The same protocol as described in example 1 was carried out.

E. coli ATCC 8739 [5] = experiment: Capture of E. coli ATCC 8739 on magnetic microbeads, culture and counting; format: binding, Escherichia coli; settings: E. coli ATCC 8739 colonies from captured beads
Description: as §8, §9, §10
The used bacteria were obtained from a collection strain of Escherichia coli (E. coli), ATCC 8739. The same experiment as that described in the previous example was carried out.

[6] = tested on: HSV virus (Herpes Simplex virus); experiment: Capture of HSV virus on magnetic microbeads coated with pepβ2GPI; format: binding
Description: as §4, §5, §6, §7

E. coli B6054 [7] = experiment: Capture on magnetic microbeads coated with pepβ2GPI: H61 E. coli B6054; format: binding
Description: as §1, §2, §3

E. coli B6054 [8] = experiment: Capture of E. coli B6054 on magnetic microbeads, culture on TS agar and counting; format: binding, Escherichia coli; settings: E. coli B6054 colonies from captured beads
S. aureus = settings: cited from earlier work
S. pyogenes = settings: cited from earlier work
E. coli = settings: cited from earlier work
C. albicans 1 = experiment: Capture on magnetic microbeads coated with pepβ2GPI: H46 C. albicans 1; format: binding
Description: as §1, §2, §3

E. coli ATCC 8739 [9] = experiment: Capture on magnetic microbeads coated with pepβ2GPI: C1 E. coli ATCC 8739; format: binding
Description: as §1, §2, §3

SCN = experiment: Capture on magnetic microbeads coated with pepβ2GPI: H: 60 SCN; format: binding
Description: as §1, §2, §3

binding of β2GPI to LPS = target: T1, binding of β2GPI to LPS (Homo sapiens, UniProt P02749); settings: cited from earlier work
T1 sequence (P02749 20-345): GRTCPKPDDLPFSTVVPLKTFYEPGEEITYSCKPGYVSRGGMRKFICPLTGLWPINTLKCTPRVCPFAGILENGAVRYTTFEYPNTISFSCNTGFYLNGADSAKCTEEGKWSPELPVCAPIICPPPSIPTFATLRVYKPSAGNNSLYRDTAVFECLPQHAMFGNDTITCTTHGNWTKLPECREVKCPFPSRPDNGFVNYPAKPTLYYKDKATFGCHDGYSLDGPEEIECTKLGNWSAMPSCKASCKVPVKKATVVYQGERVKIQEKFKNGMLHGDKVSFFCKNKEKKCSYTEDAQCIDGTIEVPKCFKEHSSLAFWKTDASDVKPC

In the case of CKNKEKKC [Peptide P2], the “Capture of C5 S. aureus ATCC 6538” value (S. aureus ATCC 6538) was 80%, the “Capture of C3 E. coli ATCC 11105” value (E. coli ATCC 11105) was 30% and the “Capture of BVDV virus” value [1] was 181%. The “% compared to β2GPI” value (S. aureus, SA 378804) was 104%, the “% compared to β2GPI” value [2] was “(72%)” and the HCV/run copies [2] was 81 copies. For the same substance, the “% compared to β2GPI” value [3] was “(112%)”, the ISAV copies [3] was 62 700 copies and the “% compared to β2GPI” value [4] was “(50%)”. The “IPN Copies” value [4] was 6 copies, the “% compared to β2GPI” value (E. coli ATCC 8739 [5]) was 15% and the “Capture of HSV virus” value [6] was 97%. For the same substance, the “Capture of H61 E. coli B6054” value (E. coli B6054 [7]) was 104% and the “% compared to β2GPI” value (E. coli B6054 [8]) was 31%.

With CKNKEKKC [Peptide P3] the “Capture of C5 S. aureus ATCC 6538” value (S. aureus ATCC 6538) was 65%, the “Capture of C3 E. coli ATCC 11105” value (E. coli ATCC 11105) was 42% and the “Capture of BVDV virus” value [1] was 15%. For the same substance, the “% compared to β2GPI” value [3] was “(117%)”, the ISAV copies [3] was 65 550 copies and the “Capture of H61 E. coli B6054” value (E. coli B6054 [7]) was 88%.

With CKNKEKKCGGSSLAFWK [Peptide P4] the “Capture of C5 S. aureus ATCC 6538” value (S. aureus ATCC 6538) was 73%, the “Capture of C3 E. coli ATCC 11105” value (E. coli ATCC 11105) was 26% and the “Capture of BVDV virus” value [1] was 73%. The “% compared to β2GPI” value (S. aureus, SA 378804) was 79%, the “% compared to β2GPI” value [2] was “(73%)” and the HCV/run copies [2] was 83 copies. For the same substance, the “% compared to β2GPI” value [3] was “(110%)”, the ISAV copies [3] was 61 150 copies and the “% compared to β2GPI” value [4] was “(100%)”. For the same substance, the “IPN Copies” value [4] was 12 copies, the “% compared to β2GPI” value (E. coli ATCC 8739 [5]) was 18% and the “Capture of HSV virus” value [6] was 357%. For the same substance, the “Capture of H61 E. coli B6054” value (E. coli B6054 [7]) was 85% and the “% compared to β2GPI” value (E. coli B6054 [8]) was 44%.

In the case of CKNKEKKCS [CNK8], the bactericidal effect (S. aureus) is listed as “This effect is less”, the bactericidal effect (S. pyogenes) is listed as “have a bactericidal effect” and the bactericidal effect (E. coli) is listed as “have a bactericidal effect”.

For GDKVSFFCKNKEKKCS [GDK15], the bactericidal effect (S. aureus) is given as “This effect is less”, the bactericidal effect (S. pyogenes) is given as “have a bactericidal effect” and the bactericidal effect (E. coli) is given as “have a bactericidal effect”.

With H-(SSLAFWK)2-K—NH2 [Peptide P10] the “Capture of C5 S. aureus ATCC 6538” value (S. aureus ATCC 6538) was 66%, the “Capture of C3 E. coli ATCC 11105” value (E. coli ATCC 11105) was 45% and the “Capture of BVDV virus” value [1] was 208%. For the same substance, the “% compared to β2GPI” value [2] was “(87%)”, the HCV/run copies [2] was 98 copies and the “% compared to β2GPI” value [3] was “(105%)”. The ISAV copies [3] was 58 400 copies, the “% compared to β2GPI” value [4] was “(67%)” and the “IPN Copies” value [4] was 8 copies. The “Capture of H46: C. albicans 1” value (C. albicans 1) was 97.9%, the “% compared to β2GPI” value (E. coli ATCC 8739 [5]) was 12% and the “Capture of HSV virus” value [6] was 119%. The “Capture of H61 E. coli B6054” value (E. coli B6054 [7]) was 79%, the “Capture of C1: E. coli ATCC 8739” value (E. coli ATCC 8739 [9]) was 6.17% and the “% compared to β2GPI” value (E. coli B6054 [8]) was 34%. For the same substance, the “Capture of H: 60 SCN” value (SCN) was 49.0%.

In the case of LAFWKTDA, the “inhibiting the binding of β2GPI to LPS” value (binding of β2GPI to LPS) is given as “capable of inhibiting the binding of β2GPI to LPS”.

With SSLAFWK [Peptide P1] the “Capture of C5 S. aureus ATCC 6538” value (S. aureus ATCC 6538) was 56%, the “Capture of C3 E. coli ATCC 11105” value (E. coli ATCC 11105) was 30% and the “Capture of BVDV virus” value [1] was 7%. For the same substance, the “% compared to β2GPI” value (S. aureus, SA 378804) was 115%, the “% compared to β2GPI” value [2] was “(163%)” and the HCV/run copies [2] was 184 copies. For the same substance, the “% compared to β2GPI” value [3] was “(130%)”, the ISAV copies [3] was 72 300 copies and the “% compared to β2GPI” value [4] was “(117%)”. For the same substance, the “IPN Copies” value [4] was 14 copies, the “% compared to β2GPI” value (E. coli ATCC 8739 [5]) was 68% and the “Capture of H61 E. coli B6054” value (E. coli B6054 [7]) was 71%. For the same substance, the “% compared to β2GPI” value (E. coli B6054 [8]) was 92%.
